Values belong to the compound of their own block, whether it stands above or below them.
Columns and labels:
[1] = molecular target: T1, Ubiquitin carboxyl-terminal hydrolase 2 (Homo sapiens, UniProt O75604); experiment: Inhibition of human USP2 (258 to 605 residues) catalytic domain by fluorescence based assay
T1 sequence (O75604 whole entry): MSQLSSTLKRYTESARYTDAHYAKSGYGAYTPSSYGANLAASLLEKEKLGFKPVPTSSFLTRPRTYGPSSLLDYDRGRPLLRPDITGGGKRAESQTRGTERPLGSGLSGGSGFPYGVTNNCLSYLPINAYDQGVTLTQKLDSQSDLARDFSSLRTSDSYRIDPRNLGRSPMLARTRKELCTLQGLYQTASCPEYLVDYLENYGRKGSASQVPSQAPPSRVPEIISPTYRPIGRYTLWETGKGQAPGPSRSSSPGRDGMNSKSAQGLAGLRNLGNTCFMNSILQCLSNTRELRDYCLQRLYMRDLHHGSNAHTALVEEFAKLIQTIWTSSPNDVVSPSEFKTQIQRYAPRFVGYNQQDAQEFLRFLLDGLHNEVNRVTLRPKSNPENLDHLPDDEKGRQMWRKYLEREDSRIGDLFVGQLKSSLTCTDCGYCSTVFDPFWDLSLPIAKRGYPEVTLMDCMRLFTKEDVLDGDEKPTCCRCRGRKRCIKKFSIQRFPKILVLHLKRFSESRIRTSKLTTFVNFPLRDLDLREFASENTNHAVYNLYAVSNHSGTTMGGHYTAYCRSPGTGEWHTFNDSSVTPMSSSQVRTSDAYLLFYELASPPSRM

[2] = molecular target: T2, Ubiquitin carboxyl-terminal hydrolase 7 (Homo sapiens, UniProt Q93009); experiment: Inhibition of human USP7 using ubiquitin-Rho110 as substrate incubated for 1 hrs
T2 sequence (Q93009 whole entry): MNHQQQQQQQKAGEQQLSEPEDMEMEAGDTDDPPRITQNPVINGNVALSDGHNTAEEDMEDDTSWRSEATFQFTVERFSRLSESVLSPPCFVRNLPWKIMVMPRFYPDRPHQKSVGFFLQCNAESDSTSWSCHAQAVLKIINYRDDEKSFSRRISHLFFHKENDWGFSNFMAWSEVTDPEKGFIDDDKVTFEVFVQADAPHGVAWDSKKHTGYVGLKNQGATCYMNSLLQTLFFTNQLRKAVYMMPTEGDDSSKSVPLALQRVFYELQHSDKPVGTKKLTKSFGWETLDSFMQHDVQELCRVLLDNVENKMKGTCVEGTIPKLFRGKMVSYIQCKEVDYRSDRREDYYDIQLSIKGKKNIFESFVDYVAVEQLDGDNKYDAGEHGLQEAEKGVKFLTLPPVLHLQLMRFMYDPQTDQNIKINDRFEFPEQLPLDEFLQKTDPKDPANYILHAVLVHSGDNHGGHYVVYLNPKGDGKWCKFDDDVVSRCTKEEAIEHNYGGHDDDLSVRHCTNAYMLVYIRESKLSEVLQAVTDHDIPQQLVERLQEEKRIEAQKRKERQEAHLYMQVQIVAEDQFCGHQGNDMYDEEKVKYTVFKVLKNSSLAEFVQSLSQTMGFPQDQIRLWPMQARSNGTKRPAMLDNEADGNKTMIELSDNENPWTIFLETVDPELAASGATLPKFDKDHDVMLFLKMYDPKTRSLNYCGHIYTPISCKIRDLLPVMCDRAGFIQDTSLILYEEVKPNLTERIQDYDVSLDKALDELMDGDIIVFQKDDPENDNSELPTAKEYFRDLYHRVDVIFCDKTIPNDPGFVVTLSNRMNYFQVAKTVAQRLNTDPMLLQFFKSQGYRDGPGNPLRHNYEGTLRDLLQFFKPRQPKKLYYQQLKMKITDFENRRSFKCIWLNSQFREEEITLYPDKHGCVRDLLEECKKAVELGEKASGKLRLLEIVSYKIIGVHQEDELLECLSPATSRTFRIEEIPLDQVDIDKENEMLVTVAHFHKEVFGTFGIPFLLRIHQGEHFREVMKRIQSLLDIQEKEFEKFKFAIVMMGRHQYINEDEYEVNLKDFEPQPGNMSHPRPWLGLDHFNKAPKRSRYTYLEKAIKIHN

[3] = molecular target: T3, Ubiquitin carboxyl-terminal hydrolase 28 (Homo sapiens, UniProt Q96RU2); experiment: Inhibition of USP28 (unknown origin) using […] as substrate by […] analysis
T3 sequence (Q96RU2 whole entry): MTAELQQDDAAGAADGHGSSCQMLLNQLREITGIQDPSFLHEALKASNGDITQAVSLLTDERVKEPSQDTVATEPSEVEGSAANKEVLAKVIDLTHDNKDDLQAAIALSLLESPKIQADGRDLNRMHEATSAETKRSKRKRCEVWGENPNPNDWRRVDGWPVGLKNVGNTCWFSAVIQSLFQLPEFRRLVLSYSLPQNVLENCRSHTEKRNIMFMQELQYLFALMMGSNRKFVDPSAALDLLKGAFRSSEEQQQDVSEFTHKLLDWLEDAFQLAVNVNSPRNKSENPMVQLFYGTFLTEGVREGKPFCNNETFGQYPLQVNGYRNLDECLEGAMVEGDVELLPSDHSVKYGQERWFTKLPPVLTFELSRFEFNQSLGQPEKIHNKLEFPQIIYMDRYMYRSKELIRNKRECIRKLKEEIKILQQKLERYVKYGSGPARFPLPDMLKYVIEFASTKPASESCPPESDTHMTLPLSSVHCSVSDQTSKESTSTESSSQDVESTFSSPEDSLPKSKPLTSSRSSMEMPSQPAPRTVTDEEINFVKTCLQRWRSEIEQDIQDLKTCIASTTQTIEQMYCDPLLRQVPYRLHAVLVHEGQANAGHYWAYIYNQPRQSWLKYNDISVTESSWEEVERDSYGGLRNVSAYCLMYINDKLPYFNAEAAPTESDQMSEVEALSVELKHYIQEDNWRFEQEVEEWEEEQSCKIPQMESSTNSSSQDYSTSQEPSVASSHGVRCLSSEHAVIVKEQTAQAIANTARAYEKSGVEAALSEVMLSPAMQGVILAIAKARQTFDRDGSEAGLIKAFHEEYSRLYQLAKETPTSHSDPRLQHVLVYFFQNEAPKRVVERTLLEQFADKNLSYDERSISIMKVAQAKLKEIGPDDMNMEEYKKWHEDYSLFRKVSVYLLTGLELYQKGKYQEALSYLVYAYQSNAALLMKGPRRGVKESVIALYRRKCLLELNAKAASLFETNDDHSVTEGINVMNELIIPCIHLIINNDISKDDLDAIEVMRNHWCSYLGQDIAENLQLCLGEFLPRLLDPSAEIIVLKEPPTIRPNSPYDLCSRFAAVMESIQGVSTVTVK

[4] = molecular target: T4, Ubiquitin carboxyl-terminal hydrolase 25 (Homo sapiens, UniProt Q9UHP3); experiment: Inhibition of USP25 (unknown origin) using […] as substrate by […] analysis
T4 sequence (Q9UHP3 whole entry): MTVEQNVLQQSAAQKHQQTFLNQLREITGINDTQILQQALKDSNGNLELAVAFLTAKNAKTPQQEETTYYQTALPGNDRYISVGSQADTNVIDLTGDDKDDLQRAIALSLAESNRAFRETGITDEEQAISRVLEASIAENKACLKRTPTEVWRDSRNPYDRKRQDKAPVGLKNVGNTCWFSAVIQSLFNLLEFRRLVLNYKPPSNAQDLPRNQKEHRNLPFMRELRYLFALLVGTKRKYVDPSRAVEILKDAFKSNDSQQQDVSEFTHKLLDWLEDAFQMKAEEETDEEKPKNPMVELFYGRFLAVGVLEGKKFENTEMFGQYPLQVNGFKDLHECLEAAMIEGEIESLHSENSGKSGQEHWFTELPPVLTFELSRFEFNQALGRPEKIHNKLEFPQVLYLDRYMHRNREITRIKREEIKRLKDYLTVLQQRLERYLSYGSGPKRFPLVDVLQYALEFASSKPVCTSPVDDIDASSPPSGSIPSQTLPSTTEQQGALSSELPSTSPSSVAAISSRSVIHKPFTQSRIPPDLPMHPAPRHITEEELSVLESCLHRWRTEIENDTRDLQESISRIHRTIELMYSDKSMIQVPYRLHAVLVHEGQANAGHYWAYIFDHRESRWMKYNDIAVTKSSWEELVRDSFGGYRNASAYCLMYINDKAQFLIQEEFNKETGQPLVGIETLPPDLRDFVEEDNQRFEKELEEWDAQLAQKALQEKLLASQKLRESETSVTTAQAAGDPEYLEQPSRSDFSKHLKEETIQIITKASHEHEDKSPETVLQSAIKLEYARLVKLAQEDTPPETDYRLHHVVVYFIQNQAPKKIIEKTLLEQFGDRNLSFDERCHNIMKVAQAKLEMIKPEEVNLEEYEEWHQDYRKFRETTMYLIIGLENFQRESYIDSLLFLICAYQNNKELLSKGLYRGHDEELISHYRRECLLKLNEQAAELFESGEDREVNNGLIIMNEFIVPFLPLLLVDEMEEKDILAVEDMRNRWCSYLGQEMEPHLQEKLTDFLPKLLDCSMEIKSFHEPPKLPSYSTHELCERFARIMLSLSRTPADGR

[5] = molecular target: T5, Ubiquitin carboxyl-terminal hydrolase 8 (Homo sapiens, UniProt P40818); experiment: Inhibition of USP8 (unknown origin)
T5 sequence (P40818 whole entry): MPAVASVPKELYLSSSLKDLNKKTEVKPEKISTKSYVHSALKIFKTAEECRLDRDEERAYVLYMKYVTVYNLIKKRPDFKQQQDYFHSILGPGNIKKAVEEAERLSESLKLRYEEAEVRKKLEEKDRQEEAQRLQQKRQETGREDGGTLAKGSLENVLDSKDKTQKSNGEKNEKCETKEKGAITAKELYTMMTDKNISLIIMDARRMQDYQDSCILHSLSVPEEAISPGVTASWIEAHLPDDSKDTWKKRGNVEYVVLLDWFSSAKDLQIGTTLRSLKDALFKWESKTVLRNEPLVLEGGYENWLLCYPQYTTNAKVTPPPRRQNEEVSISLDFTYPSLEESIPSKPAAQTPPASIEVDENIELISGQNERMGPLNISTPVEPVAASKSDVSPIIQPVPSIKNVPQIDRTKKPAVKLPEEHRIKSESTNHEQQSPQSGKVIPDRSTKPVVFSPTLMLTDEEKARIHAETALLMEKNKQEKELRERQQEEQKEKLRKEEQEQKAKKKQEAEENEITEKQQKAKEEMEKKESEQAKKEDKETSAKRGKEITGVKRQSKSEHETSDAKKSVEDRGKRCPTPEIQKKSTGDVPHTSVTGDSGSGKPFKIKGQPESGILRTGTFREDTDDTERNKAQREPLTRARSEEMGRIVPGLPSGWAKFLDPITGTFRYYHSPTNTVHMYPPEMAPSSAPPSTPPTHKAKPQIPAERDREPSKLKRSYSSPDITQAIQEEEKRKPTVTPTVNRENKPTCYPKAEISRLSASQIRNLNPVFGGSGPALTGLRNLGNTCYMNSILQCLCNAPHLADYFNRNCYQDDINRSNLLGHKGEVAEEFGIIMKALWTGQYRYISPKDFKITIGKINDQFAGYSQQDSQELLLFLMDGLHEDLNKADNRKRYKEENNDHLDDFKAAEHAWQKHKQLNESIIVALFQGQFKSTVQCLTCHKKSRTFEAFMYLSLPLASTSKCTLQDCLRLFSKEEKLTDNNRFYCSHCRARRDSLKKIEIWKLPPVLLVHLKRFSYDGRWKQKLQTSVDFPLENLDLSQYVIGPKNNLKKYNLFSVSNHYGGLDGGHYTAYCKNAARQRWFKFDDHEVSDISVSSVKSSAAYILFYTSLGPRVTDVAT

[6] = molecular target: T6, Ubiquitin carboxyl-terminal hydrolase 47 (Homo sapiens, UniProt Q96K76); experiment: Inhibition of USP47 (unknown origin)
T6 sequence (Q96K76 whole entry): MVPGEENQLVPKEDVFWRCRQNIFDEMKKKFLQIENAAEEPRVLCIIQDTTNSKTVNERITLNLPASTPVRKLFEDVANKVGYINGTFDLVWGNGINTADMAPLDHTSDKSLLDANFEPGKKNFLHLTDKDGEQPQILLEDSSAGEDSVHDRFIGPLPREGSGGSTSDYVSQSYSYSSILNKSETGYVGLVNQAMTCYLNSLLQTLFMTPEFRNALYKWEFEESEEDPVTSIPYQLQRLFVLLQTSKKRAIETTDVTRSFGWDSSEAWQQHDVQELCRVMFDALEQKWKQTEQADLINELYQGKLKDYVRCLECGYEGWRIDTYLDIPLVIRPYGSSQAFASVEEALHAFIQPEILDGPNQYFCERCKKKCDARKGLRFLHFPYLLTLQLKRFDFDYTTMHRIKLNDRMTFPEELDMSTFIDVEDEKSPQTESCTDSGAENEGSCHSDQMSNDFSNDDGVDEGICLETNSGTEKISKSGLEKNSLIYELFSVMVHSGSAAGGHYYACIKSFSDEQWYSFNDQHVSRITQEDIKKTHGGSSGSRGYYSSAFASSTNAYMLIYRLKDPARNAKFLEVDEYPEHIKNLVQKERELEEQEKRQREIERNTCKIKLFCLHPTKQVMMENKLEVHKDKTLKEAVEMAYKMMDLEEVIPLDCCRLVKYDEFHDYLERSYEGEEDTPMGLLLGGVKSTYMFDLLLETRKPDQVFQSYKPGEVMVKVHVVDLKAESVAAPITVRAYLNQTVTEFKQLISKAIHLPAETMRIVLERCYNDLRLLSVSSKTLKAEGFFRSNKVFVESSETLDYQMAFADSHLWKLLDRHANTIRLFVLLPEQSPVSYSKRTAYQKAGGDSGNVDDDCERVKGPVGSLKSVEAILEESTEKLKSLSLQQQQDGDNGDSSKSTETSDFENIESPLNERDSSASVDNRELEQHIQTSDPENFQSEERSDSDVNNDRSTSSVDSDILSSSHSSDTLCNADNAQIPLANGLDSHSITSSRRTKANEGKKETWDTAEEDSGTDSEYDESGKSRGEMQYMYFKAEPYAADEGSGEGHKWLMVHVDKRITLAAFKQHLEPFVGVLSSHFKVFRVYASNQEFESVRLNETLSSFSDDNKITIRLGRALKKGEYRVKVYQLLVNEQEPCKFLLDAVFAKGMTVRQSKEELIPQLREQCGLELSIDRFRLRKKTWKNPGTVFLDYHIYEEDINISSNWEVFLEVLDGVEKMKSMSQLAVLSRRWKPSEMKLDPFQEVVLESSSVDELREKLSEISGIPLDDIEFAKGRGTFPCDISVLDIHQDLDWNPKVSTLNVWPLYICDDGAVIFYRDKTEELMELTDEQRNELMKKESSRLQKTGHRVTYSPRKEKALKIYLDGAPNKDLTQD

[7] = molecular target: T2, Ubiquitin carboxyl-terminal hydrolase 7; experiment: Inhibition of human USP7 using Ub-AMC as substrate
[8] = molecular target: T2, Ubiquitin carboxyl-terminal hydrolase 7; experiment: Inhibition of USP7 (unknown origin)
[9] = molecular target: T7, Ubiquitin carboxyl-terminal hydrolase 2 (Homo sapiens) (UniProt O75604); experiment: Inhibition of human USP2 (258 to 605 residues) catalytic domain assessed as inhibition constant by fluorescence based assay
T7 sequence (whole entry): T1 sequence (O75604 whole entry)

IC50 [1]: > 100000 nM
SMILES: Sc1ncnc2nc[nH]c12 [MERCAPTOPURINE ANHYDROUS]

IC50 [2]: > 63300 nM
SMILES: CCc1c(-c2cccc(NC(C)=O)c2)cnc(N)c1-c1cccs1

IC50 [1]: 42000 nM
SMILES: Nc1nc2nc[nH]c2c(=S)[nH]1 [THIOGUANINE]

IC50 [3]: 1100 nM
IC50 [4]: 880 nM
SMILES: OCCNCc1cc(Br)ccc1OCc1cccc(OC(F)(F)F)c1

IC50 [5]: > 100000 nM
IC50 [6]: > 100000 nM
SMILES: CO/C(O)=C(\C#N)c1nc2c(nc1C#N)C(=O)c1ccccc1-2

IC50 [7]: 400 nM
IC50 [5]: 960 nM
IC50 [6]: 400 nM
SMILES: N#Cc1nc2c(nc1C#N)-c1ccc(Cl)cc1C2=O

IC50 [2]: 42000 nM
SMILES: CC(=O)Nc1cccc(-c2cnc(N)c(-c3ccc(O)cc3)c2C)c1

IC50 [8]: 2000 nM
SMILES: CC(=O)c1cc([N+](=O)[O-])c(Sc2c(Cl)cncc2Cl)s1

Kis [9]: 24.6 µM
SMILES: Nc1nc2[nH]cnc2c(=S)[nH]1

IC50 [3]: 2000 nM
SMILES: OCCNCc1cc(Br)ccc1OCc1cc(F)c(F)cc1F

IC50 [3]: 59600 nM
IC50 [4]: 52500 nM
SMILES: OCCNCc1cc(Br)ccc1OCc1ccccc1

Reference: ChEMBL document CHEMBL5233229, “Recent advances in the development of ubiquitin-specific-processing protease 7 (USP7) inhibitors” (Eur J Med Chem, 2020)
